# pIC50: −log10 of the molar value.
# What was measured:
# human BRD4 bromodomain 1 = human BRD4 bromodomain 1 (Homo sapiens (Human), UniProt O60885); assay: Bromodomain binding assay (BRD4 Alpha-screen); settings: acetylated histone H4 peptide
# Procedure: Bromodomain binding assays were carried out in Reaction Biology (PA, USA) to test the degrees of the inventive compounds in inhibiting the human BRD4 bromodomain 1 by Alpha-screen assay method.
# Recombinant human BRD4 bromodomain 1 expressed in E. coli with N-terminal His-tag was used as the enzyme target.
# A synthetic peptide ([…]-GSGSK-biotin) containing 1 to 21th amino acids of histone H4 acetylated at lysine 5, 8, 12 and 16 and conjugated to biotin was purchased from Millipore.
# BRD4-1 (44 to 170th amino acids; Genbank Accession # NM_058243) was expressed in E. coli with N-terminal His-tag (see, Ni-NTA spin Kit Handbook (Qiagen), second edition, January, 2008). Nickel-Chelate ALPHA acceptor beads (Perkin Elmer) were used to specifically bind BRD4-1, and ALPHA streptavidin donor beads (Perkin Elmer) were used because they specifically recognized the biotinylated H4 peptide.
# BRD binding assays were performed in a mixture comprising 50 mM Hepes (pH7.5), 100 mM NaCl, 0.05% CHAPS, 0.1% BSA, and 1% DMSO. After an assay reaction time of 60 min at 25° C., binding was measured with streptavidin donor beads and nickel-chelate acceptor beads. ALPHA signal was detected on Enspire (Ex/Em=680/520-620 nm). IC50 values were calculated from the fit of the dose-response curves. All IC50 values represent geometric mean values of a minimum of four determinations. These assays generally produced results within 3-fold of the reported mean.
# [1] = Pharmacokinetics in Sprague Dawley rats; format: in vivo, Sprague Dawley (SD) rats; settings: plasma, rat
# Procedure: For serum compound analysis, blood samples were collected by cardiac puncture over 24 hr time course. 20 μL of spiked plasma was added into a 96-well plate, adding ten volumes of internal standard (IS) in acetonitrile (ACN) to the obtained precipitated protein mixed thoroughly, centrifuged at 4,000 rpm for 10 min. 150 μL of supernatant thus obtained was transferred to another pre-labeled 96-well plate, mixed with 150 μL of water. 5 μL or 10 μL of the mixture was injected into the LC-MS system under the following conditions:
# Column: API-4000+Waters UPLC (TCLM08);
# Lower limit of quantification (LLOQ) was at 1 ng/mL. Pharmacokinetic parameters of half-life (T1/2), clearance (CL), maximum plasma concentration (Cmax), mean residence time (MRT) and bioavailability (F %), plasma exposure (AUC) of the compound were calculated using Phoenix WinNonlin 6.3 (non-compartmental model).
# Also, pharmacokinetics of compound 1 was evaluated in Sprague Dawley (SD) rats following IV administration at 3 mg/kg or 10 mg/kg dose level, and PO administration at 3 mg/kg or 10 mg/kg dose level, respectively.
# [2] = tested on: A375 (malignant melanoma); assay: Anti-proliferative activity, A375; format: cell-based; settings: Homo sapiens, A-375, read-out: Cell proliferation, IC50
# [3] = tested on: MV4-11 human leukemia xenograft; assay: Tumor growth inhibition in MV4-11 human leukemia mouse xenograft; format: in vivo, NOD/SCID mice; settings: PO, 5 d ON/2 d Off × 2 (14 days)
# Procedure: Tumor growth inhibition (TGI) activities of compound 1 were tested in MV4-11 human leukemia mouse xenograft.
# A total of 48 NOD/SCID female mice of 6-8 weeks age and weighing approximately 18 to 22 g, purchased from HFK (Beijing HFK Bio-Technology Co. Ltd.), were used for tumor inoculation.
# The MV4-11 cell line was maintained in vitro in IMDM (Iscove's modified Dulbecco's media) supplemented with 10% fetal bovine serum at 37° C. in an atmosphere of 5% CO2 in air. The tumor cells were routinely subcultured twice weekly by trypsin-EDTA treatment. The cells growing in an exponential growth phase were harvested and counted for tumor inoculation. The treatments were started when the tumor size reached approximately 150-200 mm^3.
# Each mouse was inoculated subcutaneously at the right flank with MV4-11 tumor cells (1×10^7 cells) in mixture of 100 ul PBS and 100 ul of Matrigel™ for tumor development. A total of […] mice were used for each group. The amounts of treated compounds are represented in milligram (mg) of compound per kilogram (kg) of animal body weight (mg/kg, mpk). Administration route of the test compound was PO (oral) injection. […]
# Tumor sizes were measured using a caliper, once every 4 days, and the tumor volume was expressed in mm^3 using Equation 1: V=0.5a×b^2 [Equation 1] […]
smiles,measurement,setting,value
"COc1ccc2c(c1)C(c1ccc(Cl)cc1)=N[C@@H](COS(C)(=O)=O)c1nnc(C)n1-2 [Compound 1, (R)-(6-(4-chlorophenyl)-8-methoxy-1-methyl-4H-benzo[f]-[1,2,4]triazolo[4,3-a][1,4]diazepin-4-yl)methyl methanesulfonate]",pIC50,human BRD4 bromodomain 1,6.72
same,AUC,"[1]; IV, 3 mg/kg",2 µM·h
same,clearance,"[1]; IV, 3 mg/kg",54.8 mL/min/kg
same,AUC,"[1]; IV, 10 mg/kg",15.4 µM·h
same,MRT,"[1]; IV, 10 mg/kg",1.86 h
same,clearance,"[1]; IV, 10 mg/kg",24.9 mL/min/kg
same,AUC,"[1]; PO, 3 mg/kg",1 µM·h
same,bioavailability,"[1]; PO, 3 mg/kg",50.6%
same,AUC,"[1]; PO, 10 mg/kg",13.6 µM·h
same,bioavailability,"[1]; PO, 10 mg/kg",88.6%
same,pIC50,[2],5.25
same,% TGI,[3]; 50 mpk,77%
same,% TGI,[3]; 100 mpk,84%

# Reference: patent US9884874B2, “Bromodomain-inhibiting compounds and pharmaceutical composition comprising same for preventing or treating a cancer” (KAINOS MEDICINE, INC., priority 2014, dated 2018)
